USRE48335E1, “Polymyxin derivatives as antimicrobial compounds” (priority 2014, dated 2020)
In brackets after ≈: the same amount, converted by molar mass. Positions of bridges follow the written chain, without caps; N, C: chain ends. Non-standard residues stand in square brackets, D forms with d. Residues, ends and D or L forms follow the SMILES beside them. *: point of attachment. Benzoyl(3-CF3) = O=C(c1cccc(C(F)(F)F)c1)*; X18 = O=C(c1ccc(Cl)c(C(F)(F)F)c1)*; Decanoyl = CCCCCCCCCC(=O)*; Dab = NCC[C@H](N)C(=O)O; Abu = CC[C@H](N)C(=O)O; Dap = NC[C@H](N)C(=O)O

Tests used:
Acinetobacter baumannii = tested on: Acinetobacter baumannii
In short: (§1)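 Minimum inhibitory concentrations come from CLSI-standard broth microdilution in cation-adjusted Mueller-Hinton broth.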

Enterobacter cloacae = tested on: Enterobacter cloacae
In short: as §1

Klebsiella pneumoniae = tested on: Klebsiella pneumoniae
In short: as §1

Pseudomonas aeruginosa = tested on: Pseudomonas aeruginosa
In short: as §1

A. baumannii ATCC 19606 = assay: In vivo efficacy in mouse blood infection model (neutropenic Swiss mice); conditions: compound, free base 4 mg/kg intravenously 2 h after inoculation, blood at 4 h
In short: (§2)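 Neutropenic Swiss mice (cyclophosphamide 150 mg/kg day −4, 100 mg/kg day −1, i.p.) infected i.v. with early log-phase bacteria; 4 mg/kg free base i.v. given 2 h post-inoculation. Blood CFU by cardiac puncture 4 h post-dose; Δlog10 CFU/mL treated versus saline controls.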

P. aeruginosa ATCC 27853 = assay: as above; conditions: compound, free base 4 mg/kg intravenously 2 h after inoculation, blood at 4 h
In short: as §2

Row | SMILES | MIC (Acinetobacter baumannii) [µg/mL] | Minimum inhibitory concentration, Ab A ATCC 17978 (Acinetobacter baumannii) [µg/mL] | Minimum inhibitory concentration, Ab ATCC 19606 (Acinetobacter baumannii) [µg/mL] | Minimum inhibitory concentration, Ab FADDI-AB034 (Acinetobacter baumannii) [µg/mL] | Minimum inhibitory concentration, Ec FADDI-EC001 (Enterobacter cloacae) [µg/mL] | Minimum inhibitory concentration, Ec FADDI-EC003 (Enterobacter cloacae) [µg/mL] | Minimum inhibitory concentration, Ec FADDI-EC006 (Enterobacter cloacae) [µg/mL] | MIC (Klebsiella pneumoniae) [µg/mL] | MIC (Pseudomonas aeruginosa) [µg/mL] | Minimum inhibitory concentration, Pa ATCC 27853 (Pseudomonas aeruginosa) [µg/mL] | Minimum inhibitory concentration, Pa FADDI-PA022 (Pseudomonas aeruginosa) [µg/mL] | Minimum inhibitory concentration, Pa FADDI-PA025 (Pseudomonas aeruginosa) [µg/mL] | Δ log (Treated-Control at 4 h) (A. baumannii ATCC 19606) [log10 CFU/mL] | Δ log (Treated-Control at 4 h) (P. aeruginosa ATCC 27853) [log10 CFU/mL]
1 | CC(C)C[C@H]1NC(=O)[C@H](CCN)NC(=O)[C@@H](NC(=O)[C@@H](CO)NC(=O)[C@@H](NC(=O)[C@H](CCN)NC(=O)c2cccc(C(F)(F)F)c2)[C@@H](C)O)CCNC(=O)[C@H]([C@@H](C)O)NC(=O)[C@H](CCN)NC(=O)[C@H](CCN)NC(=O)[C@H]([C@@H](C)O)NC1=O [Compound 19] ({Benzoyl(3-CF3)}-[Dab]T[dS][Dab][Dab][dL]T[Dab][Dab]T; lactam 4-C) | 2 (≈ 1.7 µM) | 0.5 (≈ 0.425 µM) | 2 (≈ 1.7 µM) | 4 (≈ 3.4 µM) | 1 (≈ 0.85 µM) | 0.5 (≈ 0.425 µM) | 0.5 (≈ 0.425 µM) | 0.5 (≈ 0.425 µM) | 32 (≈ 27.2 µM) | 32 (≈ 27.2 µM) | 16 (≈ 13.6 µM) | >32 | −1.58 | 
2 | CCCCCCCCCC(=O)N[C@@H](CCN)C(=O)N[C@H](C(=O)N[C@@H](CCN)C(=O)N[C@H]1CCNC(=O)[C@H]([C@@H](C)O)NC(=O)[C@H](CCN)NC(=O)[C@H](CCN)NC(=O)[C@H]([C@@H](C)O)NC(=O)[C@@H](CC(C)C)NC(=O)[C@H](CCN)NC1=O)[C@@H](C)O [Compound 27] (Decanoyl-[Dab]T[Dab][Dab][Dab][dL]T[Dab][Dab]T; lactam 4-C) | 1 (≈ 0.854 µM) | 1 (≈ 0.854 µM) | 1 (≈ 0.854 µM) | 1 (≈ 0.854 µM) | <0.125 | <0.125 | 0.25 (≈ 0.213 µM) | 0.5 (≈ 0.427 µM) | 1 (≈ 0.854 µM) | 1 (≈ 0.854 µM) | 1 (≈ 0.854 µM) | 16 (≈ 13.7 µM) |  | −3.67
3 | CC[C@@H]1NC(=O)[C@@H](CC(C)C)NC(=O)[C@H](CCN)NC(=O)[C@@H](NC(=O)[C@H](CN)NC(=O)[C@@H](NC(=O)[C@H](CCN)NC(=O)c2ccc(Cl)c(C(F)(F)F)c2)[C@@H](C)O)CCNC(=O)[C@H]([C@@H](C)O)NC(=O)[C@H](CCN)NC(=O)[C@H](CCN)NC1=O [Compound 112] (X18-[Dab]T[Dap][Dab][Dab][dL][Abu][Dab][Dab]T; lactam 4-C) | 0.25 (≈ 0.209 µM) | <0.125 | 0.25 (≈ 0.209 µM) | 0.25 (≈ 0.209 µM) | 0.5 (≈ 0.419 µM) | 0.25 (≈ 0.209 µM) | 0.5 (≈ 0.419 µM) | 0.5 (≈ 0.419 µM) | 0.5 (≈ 0.419 µM) | 0.5 (≈ 0.419 µM) | 0.5 (≈ 0.419 µM) | 1 (≈ 0.838 µM) |  | −3.15
